The results in this text go back to US12116356B2, “N-heterocyclic five-membered ring-containing capsid protein assembly inhibitor, pharmaceutical composition thereof, and use thereof” (CHIA TAI TIANQING PHARMACEUTICAL GROUP CO., LTD., priority 2018, dated 2024).

A short description of series [1]: Stability of rat liver microsomes in vitro. The class given is in vitro ADME. The procedure: (§1) 300 μL of a final incubation system contains 30 μL of liver microsomes (protein concentration: 0.15 mg/mL), 30 μL NADPH+MgCl2, 3 μL substrate (formulated with acetonitrile), and 237 μL PBS buffer. Duplicate incubation systems of 0.3 mL each were formulated for each species. A total volume of 270 μL of a uniformly mixed solution of the substrate and the enzyme was formulated in each tube, the solution and NADPH were pre-incubated at 37° C. for 5 minutes, respectively. Then 30 μL of the mixed solution of NADPH+MgCl2 was added for reaction. 50 μL of the reaction solution was taken out at 0, 10, 30, and 60 mins, and the reaction was terminated with 300 μL of ice acetonitrile containing an internal standard.
(§2) Sample pre-treatment: To 50 μL of the incubated sample was added 300 μL of ice acetonitrile containing diazepam as an internal standard and then precipitated. After vortexing for 5 minutes, the sample was centrifugated (12000 rpm, 4° C.) for 10 minutes. 75 μL of the supernatant was pipetted into a 96-well plate, and then diluted with 75 μL ultrapure water and mixed uniformly. 0.5 μL of the resulting solution was injected and analyzed by LC-MS/MS.

Series [2] is described as follows: In vitro cytotoxicity (CCK-8) in HepG2.2.15 cells. In kind it is cell-based. To be noted: human. The method, then: (§3) A bottle of HepG2.2.15 or HepAD38 cells in good exponential growth state was taken, washed once by adding 5 mL PBS, and then thereto was added 3 mL trypsin. The sample was digested in a cell culture incubator, and taken out from time to time and observed under a microscope. When the cells just fell off, 1 mL trypsin was discarded. The residual liquid was placed in a cell culture incubator at 37° C. and digested for 8-15 min. The cells were taken out and observed under a microscope (whether the cells were individually round and there was no adhesion between the cells). 5 mL MEM medium was added for cell resuspension. The cells were then subjected to cell counting with a cell counter, diluted with a complete medium, and adjusted to a cell density of 2*10^5 cells/mL. Then the cells were seeded at 100 μL/well in a 96-well plate with a multi-channel pipette (the 96-well plate was coated with 50 μg/mL Collagen I solution in advance), and cultured in a constant temperature CO2 incubator for 24 h. The cells were treated by drug administration, and fresh medium containing the compound was used to replace the spent medium every 3 days. To control wells was added a drug-free medium containing 0.5% DMSO, and a control well containing a common medium was set up. 6 days after the administration, CCK-8 was added at 10 μL/well. After 1 to 2 hours, the absorbance was detected with microplate reader at 450 nm, and the inhibition rate and the CC50 were calculated.

A further series relates to HBV DNA in HepAD38 cells. In words: In vitro cell HBV DNA inhibitory activity (anti-HBV activity) in HepAD38 cells. The class given is cell-based. Conditions: Hepatitis B virus, 144 h; anti-HBV activity in HepAD38 cells, 6 days treatment, intracellular capsid HBV DNA by qPCR; read-out: EC50. The procedure:
(§4) A bottle of HepG2.2.15 or HepAD38 cells in good exponential growth state was taken, washed once by adding 5 mL PBS, and then thereto was added 3 mL trypsin. After digesting at room temperature for 5 min, 2 mL trypsin was discarded, and then the sample was placed in a cell culture incubator and digested for 10 min. The cells were taken out from time to time and observed under a microscope (whether the cells were individually round and there was no adhesion between the cells). 10 mL complete medium was added to terminate the digestion. After pipetting into a single cell suspension, 10 μL of the cell suspension was taken out for cell counting with a cell counter, and then diluted with a complete medium and adjusted to a cell density of 1*10^5 cells/mL. Then the cell suspension was seeded at 1 mL/well in a 24-well plate with a multi-channel pipette (the 24-well plate was coated with 50 μg/mL Collagen I solution in advance), and cultured in a constant temperature CO2 incubator for 48 h.
(§5) Different compounds dissolved in DMSO were subjected to two-fold gradient dilution (10 concentrations in total) with complete medium. The compound was added, and fresh medium containing the compound was used to replace the spent medium every 72 hours. The cells were treated with the compound for 6 days. After the supernatant was siphoned off, 300 μL lysate (10 mM Tris-HCl, 1 mM EDTA, and 1% NP-40) was added to each well. After lysing at room temperature for 10 min, DNA was extracted, and HBV DNA in the intracellular viral capsid was measured by real-time fluorescence quantitative PCR. The inhibition rate was calculated based on the Ct value, and the EC50 value was calculated by the four-parameter method.
For orientation: In qPCR the cycle at which signal appears reflects the starting amount.

Series [3] can be described thus: Stability of human liver microsomes in vitro. In kind it is in vitro ADME. The method, then:
as §1, §2

The subject of series [4] is HBV DNA in HepG2.2.15 cells. As to the kind of experiment: In vitro cell HBV DNA inhibitory activity (anti-HBV activity) in HepG2.2.15 cells. Conditions: Hepatitis B virus, 144 h; anti-HBV activity in HepG2.2.15 cells, 6 days treatment, intracellular capsid HBV DNA by qPCR; read-out: EC50. In kind it is cell-based. The procedure: as §4, §5
Series [5] in a line: In vitro cytotoxicity (CCK-8) in HepAD38 cells. The class given is cell-based. Conditions: human. The procedure: as §3
The nature of series [6]: Solubility in PBS buffer at pH 7.4. The class given is physicochemical. To be noted: aqueous buffer, PBS buffer pH 7.4, 25° C. The procedure:
[…] After standing at 25° C. for 16 hours, the system was centrifugated (12000 rpm, room temperature) for 10 min. 20 μL of the supernatant was taken out, and the reaction was terminated with 400 μL of acetonitrile containing an internal standard (diazepam 20 ng/mL). 30 μL of the supernatant was pipetted, and 150 μL of 50% acetonitrile aqueous solution was added thereto for dilution and mixed uniformly. 0.5 μL of the resulting solution was injected for analysis.

A short description of series [7]: Stability of mouse liver microsomes in vitro. The class given is in vitro ADME. The method, then:
as §1, §2
In general terms: Liver microsomes are a subcellular fraction often used to study metabolism.

SMILES strings stand for the structures. Converted amounts (≈) assume the structure as drawn.

As usually defined, the CC50 is the concentration at which the toxic effect on the cells reaches its halfway point. For orientation: EC50 means the concentration that produces a half-maximal response. `C#CCNC(=O)C(=O)c1c(C)c(C(=O)Nc2ccc(F)c(C#N)c2)c(C)n1C` [Example 1, N-(3-cyano-4-fluorophenyl)-1,2,4-trimethyl-5-(2-oxo-2-(prop-2-yn-1-ylamino)acetyl)-1H-pyrrole-3-carboxamide]: the “Remaining (%) at 60 min” value in series [1] is given as 44%; in series [3], 69%. The CC50 at 6 days in series [2] and in series [5] was more than 100 µM each time. Besides, the EC50 (in the series on HBV DNA in HepAD38 cells; in series [4]) was 10 to 50 nM in each case.

One may read the solubility as the concentration that dissolves in the medium under given conditions. Low readings indicate a poorly soluble substance, high ones a readily soluble substance. `Cc1c(C(=O)Nc2ccc(F)c(C#N)c2)c(C)n(C)c1C(=O)C(=O)NC12CC(C1)C2` [Example 2, 5-(2-(Bicyclo[1.1.1]pentan-1-ylamino)-2-oxoacetyl)-N-(3-cyano-4-fluorophenyl)-1,2,4-trimethyl-1H-pyrrole-3-carboxamide]: the EC50 (in the series with HBV DNA in HepAD38 cells; in series [4]) was less than 10 nM each time. The compound further returned a solubility at 16 h in series [6] of 22.1 µM (≈ 9.03 µg/mL). Further, the CC50 at 6 days in series [5] is more than 100 µM.

As for `Cc1c(C(=O)Nc2ccc(F)c(C#N)c2)c(C)n(C)c1C(=O)C(=O)NC(C)(C)CO` [Example 8, N-(3-cyano-4-fluorophenyl)-5-(2-((1-hydroxy-2-methylpropan-2-yl)amino)-2-oxoacetyl)-1,2,4-trimethyl-1H-pyrrole-3-carboxamide], the “Remaining (%) at 60 min” value worked out at 52.0% in series [1] and 70.6% in series [3]. In addition, the CC50 at 6 days in series [2] and in series [5] was more than 100 µM in each case. The EC50 (in the series with HBV DNA in HepAD38 cells; in series [4]) was less than 10 nM throughout. In series [6], this compound gave a solubility at 16 h of 80.9 µM (≈ 33.5 µg/mL).

In the case of `COC(=O)C(C)(C)NC(=O)C(=O)c1c(C)c(C(=O)Nc2ccc(F)c(C#N)c2)c(C)n1C` [Example 9, methyl (2-(4-((3-cyano-4-fluorophenyl)carbamoyl)-1,3,5-trimethyl-1H-pyrrole-2-yl)-2-oxoacetylamino)-2-methylpropionate], the CC50 at 6 days in series [2] and in series [5] was more than 100 µM in each case. Further, the EC50 in the series on HBV DNA in HepAD38 cells was less than 10 nM; in series [4], 10 to 50 nM. Besides, the solubility at 16 h in series [6] turned out to be 9.6 µM (≈ 4.25 µg/mL).

For `Cc1c(C(=O)Nc2ccc(F)c(C#N)c2)c(Br)n(C)c1C(=O)C(=O)NC(C)(C)C` [Example 15, 2-bromo-5-(2-(tert-butylamino)-2-oxoacetyl)-N-(3-cyano-4-fluorophenyl)-1,4-dimethyl-1H-pyrrole-3-carboxamide], the EC50 was less than 10 nM in the series on HBV DNA in HepAD38 cells and 10 to 50 nM in series [4]. For the same compound, in series [6], the solubility at 16 h turned out to be 4.9 µM (≈ 2.27 µg/mL). Also, the CC50 at 6 days in series [5] is more than 100 µM.

With `Cc1c(C(=O)Nc2ccc(F)c(C#N)c2)c(Cl)n(C)c1C(=O)C(=O)NC(C)(C)C` [Example 17, 5-(2-(tert-butylamino)-2-oxoacetyl)-2-chloro-N-(3-cyano-4-fluorophenyl)-1,4-dimethyl-1H-pyrrole-3-carboxamide], the results for the “Remaining (%) at 60 min” value in series [1] and in series [7] were 44.9% and 47.4%, respectively. Besides, the CC50 at 6 days in series [2] and in series [5] was more than 100 µM in each case. Moreover, the EC50 in series [4] lay in the range of 10 to 50 nM.

On to `Cc1c(C(=O)Nc2ccc(F)c(C#N)c2)c(C)n(C)c1C(=O)C(=O)NC1(C)CCOCC1` [Example 24, N-(3-cyano-4-fluorophenyl)-1,2,4-trimethyl-5-(2-((4-methyltetrahydro-2H-pyran-4-yl)amino)-2-oxoacetyl)-1H-pyrrole-3-carboxamide], for which the CC50 at 6 days in series [2] and in series [5] was more than 100 µM each time. The EC50 (in the series on HBV DNA in HepAD38 cells; in series [4]) was less than 10 nM each time.

With `Cc1c(C(=O)Nc2ccc(F)c(C#N)c2)c(C)n(C)c1C(=O)C(=O)NC1(CO)COC1` [Example 26], the CC50 at 6 days in series [2] and in series [5] was more than 100 µM each time. Moreover, the EC50 (with HBV DNA in HepAD38 cells; in series [4]) was 50 to 100 nM in each case.

Regarding `Cc1c(C(=O)Nc2ccc(F)c(C#N)c2)c(C)n(C)c1C(=O)C(=O)NC1(CO)CC1` [Example 27, N-(3-cyano-4-fluorophenyl)-5-(2-((1-(hydroxymethyl)cyclopropyl)amino)-2-oxoacetyl)-1,2,4-trimethyl-1H-pyrrole-3-carboxamide], the CC50 at 6 days in series [2] and in series [5] was more than 100 µM each time. Moreover, the EC50 (in the series on HBV DNA in HepAD38 cells; in series [4]) was 10 to 50 nM each time.

Take `Cc1c(C(=O)Nc2ccc(F)c(C#N)c2)c(Cl)n(C)c1C(=O)C(=O)N[C@@H](C)C(F)(F)F` [Example 29, (S)-2-chloro-N-(3-cyano-4-fluorophenyl)-1,4-dimethyl-5-(2-oxo-2-((1,1,1-trifluoroprop-2-yl)amino)acetyl)-1H-pyrrole-3-carboxamide]: the figures for the “Remaining (%) at 60 min” value in series [1], in series [3] and in series [7] were 88.7%, 99.6% and 99.2%, respectively. Further, the CC50 at 6 days in series [2] and in series [5] was more than 100 µM each time. Besides, the EC50 is less than 10 nM in the series with HBV DNA in HepAD38 cells and 10 to 50 nM in series [4].

For the compound `Cc1c(C(=O)Nc2ccc(F)c(C#N)c2)c(Cl)n(C)c1C(=O)C(=O)N[C@H](C)C(F)(F)F` [Example 30, (R)-2-chloro-N-(3-cyano-4-fluorophenyl)-1,4-dimethyl-5-(2-oxo-2-((1,1,1-trifluoroprop-2-yl)amino)acetyl)-1H-pyrrole-3-carboxamide], the CC50 at 6 days in series [2] and in series [5] was more than 100 µM in each case. The EC50 is 10 to 50 nM with HBV DNA in HepAD38 cells and less than 10 nM in series [4].

In the case of `Cc1c(C(=O)Nc2ccc(F)c(N)c2)c(C)n(C)c1C(=O)C(=O)N[C@@H](C)C(F)(F)F` [Example 42, (S)—N-(3-amino-4-fluorophenyl)-1,2,4-trimethyl-5-(2-oxo-2-((1,1,1-trifluoroprop-2-yl)amino)acetyl)-1H-pyrrole-3-carboxamide], the results for the “Remaining (%) at 60 min” value in series [1], in series [3] and in series [7] were 85.3%, 102% and 61.9%, respectively. In series [2], this compound yielded a CC50 at 6 days of more than 100 µM. For the same compound, the EC50 with HBV DNA in HepAD38 cells is 10 to 50 nM; in series [4], less than 10 nM.

Regarding `Cc1c(C(=O)Nc2ccc(F)c(C#N)c2)c(C)n(C)c1C(=O)C(=O)NC1(C)CS(=O)(=O)C1` [Example 45, N-(3-cyano-4-fluorophenyl)-1,2,4-trimethyl-5-(2-((3-methyl-1,1-dioxidothietan-3-yl)amino)-2-oxoacetyl)-1H-pyrrole-3-carboxamide], the “Remaining (%) at 60 min” value in series [1] came to 47%; in series [3], 73%. In addition, the EC50 is 10 to 50 nM with HBV DNA in HepAD38 cells and less than 10 nM in series [4].
